From BindingDB's records for doi:10.1016/S0960-894X(00)80067-0 (1994)

Assay: Compound was tested for inhibition of partially purified squalene epoxidase

Row | SMILES | IC50
1 | CCN(Cc1cccc(OCc2cc(-c3cccs3)cs2)c1)c1cc(O)cc(C2(C(F)(F)F)N=N2)c1 [3-{[3-([2,3']Bithiophenyl-5'-ylmethoxy)-benzyl]-ethyl-amino}-5-(3-trifluoromethyl-3H-diazirin-3-yl)-phenol] | 500 µM
2 | CCN(Cc1cccc(OCc2cc(-c3cccs3)cs2)c1)c1ccc(C(=O)c2ccc(CCl)cc2)cc1 [(4-{[3-([2,3']Bithiophenyl-5'-ylmethoxy)-benzyl]-ethyl-amino}-phenyl)-(4-chloromethyl-phenyl)-methanone] | 500 µM
3 | CCN(CC=CC#CC(C)(C)C)Cc1cccc(OCc2cc(CO)cc(C3(C(F)(F)F)N=N3)c2)c1 [[3-(3-{[((E)-6,6-Dimethyl-hept-2-en-4-ynyl)-ethyl-amino]-methyl}-phenoxymethyl)-5-(3-trifluoromethyl-3H-diazirin-3-yl)-phenyl]-methanol] | 500 µM
